# Laboratory results as given in patent US8664257B2, “Oxygen-substituted 3-heteroaroylamino-propionic acid derivatives and their use as pharmaceuticals” (Sanofi, priority 2010, dated 2014).
# Biological target: T1, Recombinant human cathepsin A (Homo sapiens, UniProt P10619)
# T1 construct: Recombinant human cathepsin A (residues 29-480, with a C-terminal 10-His tag); 10-His (C); purchased R&D Systems 1049-SE
# T1 sequence (P10619 29-312 limits assumed): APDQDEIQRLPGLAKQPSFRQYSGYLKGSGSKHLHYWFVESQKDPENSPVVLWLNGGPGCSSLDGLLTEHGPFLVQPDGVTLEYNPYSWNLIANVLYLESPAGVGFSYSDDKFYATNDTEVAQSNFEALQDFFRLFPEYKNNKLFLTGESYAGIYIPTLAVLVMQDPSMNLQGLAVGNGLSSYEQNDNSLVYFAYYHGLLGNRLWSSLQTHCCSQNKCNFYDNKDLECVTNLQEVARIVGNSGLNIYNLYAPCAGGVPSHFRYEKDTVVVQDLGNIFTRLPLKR
# T1 sequence (P10619 327-480 limits assumed): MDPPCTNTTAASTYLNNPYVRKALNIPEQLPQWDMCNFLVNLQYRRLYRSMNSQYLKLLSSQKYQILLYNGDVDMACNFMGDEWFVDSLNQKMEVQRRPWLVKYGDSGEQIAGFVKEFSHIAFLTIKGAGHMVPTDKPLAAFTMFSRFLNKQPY
# Assay: Cathepsin A inhibitory activity
# Assay type: biochemical
# Settings: pharmacological test "Cathepsin A inhibitory activity"; IC50 given as class A/B/C; read-out: Activity (2): Cathepsin A inhibitory activity, IC50 class
# Summary of the method: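 Read-out was microfluidic separation of cleaved vs. uncleaved Bodipy FL-bradykinin (2 μM), giving turnover, % inhibition and IC50. Compound and 833 ng/ml enzyme met for 15 min RT in pH 5.5 MES/DTT before substrate (15 min RT). The 29-480 His-tagged human enzyme was first activated by cathepsin L, then E-64 (10 μM).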
row,SMILES,IC50
1,Cc1cccc([C@H](CC(=O)O)NC(=O)c2cc(O)n(-c3ccccc3Cl)n2)c1 [Example 217],100 to 1000 nM
2,O=C(O)CC(NC(=O)c1cc(O)n(-c2ccccc2F)n1)c1cccc2c1OCO2 (centres unmarked) [Example 228],100 to 1000 nM
3,O=C(O)CC(NC(=O)c1cc(O)n(-c2cccc(Cl)c2)n1)c1cccc2c1OCO2 (centres unmarked) [Example 249],100 to 1000 nM
4,O=C(O)CC(NC(=O)c1cc(O)n(-c2ccccc2F)n1)c1cccc(Cl)c1F (centres unmarked) [Example 244],100 to 1000 nM
5,COc1cccc([C@H](CC(=O)O)NC(=O)c2cc(O)n(-c3ccccc3Cl)n2)c1 [Example 213],100 to 1000 nM

# More lines, now with the values ahead:
row,IC50,SMILES
1,100 to 1000 nM,O=C(O)CC(NC(=O)c1cc(O)n(-c2ccccc2)n1)c1cccc(Cl)c1F (centres unmarked) [Example 172]
2,100 to 1000 nM,COc1ccccc1[C@H](CC(=O)O)NC(=O)c1cc(O)n(-c2ccc(F)cc2F)n1 [Example 177]
3,100 to 1000 nM,O=C(O)CC(NC(=O)c1cc(O)n(-c2ccc(F)cc2F)n1)c1cccc2c1OCO2 (centres unmarked) [Example 174]
4,100 to 1000 nM,O=C(O)CC(NC(=O)c1cc(O)n(-c2ccccc2F)n1)c1ccc(C(F)(F)F)cc1F (centres unmarked) [Example 238]

# Same assay, conditions: read-out: Activity (2): Cathepsin A inhibitory activity (IC50 class)
row,SMILES,IC50
1,COc1cc(C(=O)NC(CC(=O)O)c2ccc(F)cc2C)nn1-c1ccccc1F (centres unmarked) [Example 677],< 100 nM
2,"COc1ccc(C(CC(=O)O)NC(=O)c2cc(O)n(-c3ccccc3Cl)n2)c(C(F)(F)F)c1 (centres unmarked) [Example 567, 3-{[1-(2-Chloro-phenyl)-5-hydroxy-1H-pyrazole-3-carbonyl]-amino}-3-(4-methoxy-2-trifluoromethyl-phenyl)-propionic acid]",1000 to 30000 nM
3,"CC(C)(C)[C@@H](O)COc1cc(C(=O)N[C@@H](CC(=O)O)c2cccc(Cl)c2Cl)nn1-c1ccccc1F [Example 776, (S)-3-(2,3-Dichloro-phenyl)-3-{[1-(2-fluoro-phenyl)-5-((R)-2-hydroxy-3,3-dimethyl-butoxy)-1H-pyrazole-3-carbonyl]-amino}-propionic acid]",< 100 nM
4,"CC(C)[C@](C)(O)COc1cc(C(=O)N[C@@H](CC(=O)O)c2ccccc2C(F)(F)F)nn1-c1ccccc1F [Example 784, (S)-3-{[1-(2-Fluoro-phenyl)-5-((S)-2-hydroxy-2,3-dimethyl-butoxy)-1H-pyrazole-3-carbonyl]-amino}-3-(2-trifluoromethyl-phenyl)-propionic acid]",< 100 nM
5,COc1cc(C(=O)NC(CC(=O)O)c2ccc(-c3ccc(F)cc3)cc2)nn1-c1ccccc1 (centres unmarked) [Example 544],1000 to 30000 nM
6,"COc1ccc(-c2ccccc2)cc1C(CC(=O)O)NC(=O)c1cc(O)n(-c2ccccc2)n1 (centres unmarked) [Example 549, 3-[(5-Hydroxy-1-phenyl-1H-pyrazole-3-carbonyl)-amino]-3-(4-methoxy-biphenyl-3-yl)-propionic acid]",1000 to 30000 nM
7,O=C(O)CC(NC(=O)c1cc(O)n(-c2ccccc2Cl)n1)c1ccc(-c2cccc(Cl)c2)cc1 (centres unmarked) [Example 540],100 to 1000 nM
8,"Cc1ccc(C(CC(=O)O)NC(=O)c2cc(O)n(-c3ccccc3Cl)n2)c(F)c1 (centres unmarked) [Example 561, 3-{[1-(2-Chloro-phenyl)-5-hydroxy-1H-pyrazole-3-carbonyl]-amino}-3-(2-fluoro-4-methyl-phenyl)-propionic acid]",100 to 1000 nM
9,CCOc1cc(C(=O)NC(CC(=O)O)c2cccc(F)c2C)nn1-c1ccccc1Cl (centres unmarked) [Example 725],< 100 nM
10,"O=C(O)CC(NC(=O)c1cc(O)n(-c2ccccc2Cl)n1)c1ccc(-n2cncn2)cc1 (centres unmarked) [Example 557, 3-{[1-(2-Chloro-phenyl)-5-hydroxy-1H-pyrazole-3-carbonyl]-amino}-3-(4-[1,2,4]triazol-1-yl-phenyl)-propionic acid]",100 to 1000 nM
11,Cc1ccccc1[C@H](CC(=O)O)NC(=O)c1cc(OCCN2CCCC2=O)n(-c2ccccc2F)n1 [Example 639],< 100 nM
12,N#Cc1ccc([C@H](CC(=O)O)NC(=O)c2cc(OCC3CC3)n(-c3ccccc3F)n2)cc1 [Example 688],< 100 nM
13,COc1cc(C(=O)N[C@@H](CC(=O)O)c2ccccc2Cl)nn1-c1ccccc1F [Example 676],< 100 nM
14,COc1cc(C(=O)N[C@@H](CC(=O)O)c2cccc(Cl)c2Cl)nn1-c1ccccc1F [Example 681],< 100 nM

# Continued, values first:
row,IC50,SMILES
1,100 to 1000 nM,"COc1cc(C(=O)NC(CC(=O)O)c2ccc(-c3ccccn3)cc2)nn1-c1ccccc1 (centres unmarked) [Example 597, 3-[(5-Methoxy-1-phenyl-1H-pyrazole-3-carbonyl)-amino]-3-(4-pyridin-2-yl-phenyl)-propionic acid]"
2,100 to 1000 nM,COc1cc(C(=O)N[C@@H](CC(=O)O)c2ccc(C#N)cc2)nn1-c1ccccc1F [Example 668]
3,100 to 1000 nM,"COc1ccc(C(CC(=O)O)NC(=O)c2cc(O)n(-c3ccccc3F)n2)c(C(F)(F)F)c1 (centres unmarked) [Example 552, 3-{[1-(2-Fluoro-phenyl)-5-hydroxy-1H-pyrazole-3-carbonyl]-amino}-3-(4-methoxy-2-trifluoromethyl-phenyl)-propionic acid]"
4,< 100 nM,CCOc1cc(C(=O)N[C@@H](CC(=O)O)c2ccc(Cl)cc2)nn1-c1ccccc1Cl [Example 733]
5,100 to 1000 nM,"Cc1ccc(C(CC(=O)O)NC(=O)c2cc(O)n(-c3ccccc3)n2)c(F)c1 (centres unmarked) [Example 564, 3-(2-Fluoro-4-methyl-phenyl)-3-[(5-hydroxy-1-phenyl-1H-pyrazole-3-carbonyl)-amino]-propionic acid]"
6,< 100 nM,Cc1ccccc1[C@H](CC(=O)O)NC(=O)c1cc(OC2CCC2)n(-c2ccccc2F)n1 [Example 648]
7,< 100 nM,CCC(O)(CC)COc1cc(C(=O)N[C@@H](CC(=O)O)c2ccccc2C)nn1-c1ccccc1F [Example 756]

# Same assay, conditions: read-out: Activity (2): Cathepsin A inhibitory activity, IC50 class
row,SMILES,IC50
1,"CC(C)[C@@](C)(O)COc1cc(C(=O)NCC(C(=O)O)c2ccccc2)nn1-c1ccccc1F (stereo partly drawn) [Example 827, 3-{[1-(2-Fluoro-phenyl)-5-((R)-2-hydroxy-2,3-dimethyl-butoxy)-1H-pyrazole-3-carbonyl]-amino}-2-phenyl-propionic acid]",100 to 1000 nM
2,"Cc1ccc([C@H](CC(=O)O)NC(=O)c2cc(OC[C@@H](O)C(C)(C)C)n(-c3ccccc3F)n2)cc1 [Example 801, (S)-3-{[1-(2-Fluoro-phenyl)-5-((S)-2-hydroxy-3,3-dimethyl-butoxy)-1H-pyrazole-3-carbonyl]-amino}-3-p-tolyl-propionic acid]",< 100 nM
3,O=C(O)CC(NC(=O)c1cc(O)n(-c2ccc(Cl)cc2)n1)c1cccc(Oc2ccc(Cl)cc2)c1 (centres unmarked) [Example 290],1000 to 30000 nM
4,COc1ccccc1[C@H](CC(=O)O)NC(=O)c1cc(O)n(-c2ccc(Cl)cc2)n1 [Example 274],1000 to 30000 nM
5,O=C(O)C[C@H](NC(=O)c1cc(O)n(-c2cccc(F)c2)n1)c1ccc(Cl)cc1Cl [Example 332],100 to 1000 nM
6,O=C(O)CC(NC(=O)c1cc(O)n(-c2ccc(F)cc2F)n1)c1ccc(-c2cccc(F)c2)cc1 (centres unmarked) [Example 384],100 to 1000 nM
7,Cc1ccc(C(CC(=O)O)NC(=O)c2cc(O)n(-c3ccc(F)c(Cl)c3)n2)c(C)c1 (centres unmarked) [Example 91],1000 to 30000 nM
8,O=C(O)C[C@H](NC(=O)c1cc(O)n(-c2ccc(Cl)cc2)n1)c1c(F)cccc1F [Example 295],1000 to 30000 nM
9,CCc1ccc(C(CC(=O)O)NC(=O)c2cc(O)n(-c3ccccc3F)n2)cc1 (centres unmarked) [Example 134],100 to 1000 nM
10,O=C(O)CC(NC(=O)c1cc(O)n(-c2ccccc2)n1)c1ccccc1Cl (centres unmarked) [Example 20],100 to 1000 nM

# More lines, now with the values ahead:
row,IC50,SMILES
1,1000 to 30000 nM,O=C(O)CC(NC(=O)c1cc(O)n(-c2ccc(F)cc2)n1)c1ccccc1F (centres unmarked) [Example 343]
2,1000 to 30000 nM,O=C(O)C[C@H](NC(=O)c1cc(O)n(-c2ccc(Cl)cc2)n1)c1ccc(F)cc1 [Example 276]
3,100 to 1000 nM,O=C(O)CC(NC(=O)c1cc(O)n(-c2cccc(F)c2)n1)c1cccc2c1OCO2 (centres unmarked) [Example 300]
4,100 to 1000 nM,CC(C)c1ccc(C(CC(=O)O)NC(=O)c2cc(O)n(-c3ccccc3)n2)cc1 (centres unmarked) [Example 24]
5,1000 to 30000 nM,N#Cc1cccc([C@H](CC(=O)O)NC(=O)c2cc(O)n(-c3cccc(F)c3)n2)c1 [Example 303]
6,100 to 1000 nM,O=C(O)C[C@H](NC(=O)c1cc(O)n(-c2ccccc2F)n1)c1ccc(Cl)cc1Cl [Example 117]

# Same assay, conditions: recombinant human cathepsin A 833 ng/ml, Bodipy FL-labeled bradykinin 2 μM, pH 5.5; read-out: CATH-A IC50
row,SMILES,IC50
1,"COc1ccc(C(CC(=O)O)NC(=O)c2cc(O)n(-c3ccccc3Cl)n2)c(C(F)(F)F)c1 (centres unmarked) [Example 567, 3-{[1-(2-Chloro-phenyl)-5-hydroxy-1H-pyrazole-3-carbonyl]-amino}-3-(4-methoxy-2-trifluoromethyl-phenyl)-propionic acid]",1060 nM
2,"COc1ccc(-c2ccccc2)cc1C(CC(=O)O)NC(=O)c1cc(O)n(-c2ccccc2)n1 (centres unmarked) [Example 549, 3-[(5-Hydroxy-1-phenyl-1H-pyrazole-3-carbonyl)-amino]-3-(4-methoxy-biphenyl-3-yl)-propionic acid]",13800 nM
3,"Cc1ccc(C(CC(=O)O)NC(=O)c2cc(O)n(-c3ccccc3Cl)n2)c(F)c1 (centres unmarked) [Example 561, 3-{[1-(2-Chloro-phenyl)-5-hydroxy-1H-pyrazole-3-carbonyl]-amino}-3-(2-fluoro-4-methyl-phenyl)-propionic acid]",266 nM
4,"O=C(O)CC(NC(=O)c1cc(O)n(-c2ccccc2Cl)n1)c1ccc(-n2cncn2)cc1 (centres unmarked) [Example 557, 3-{[1-(2-Chloro-phenyl)-5-hydroxy-1H-pyrazole-3-carbonyl]-amino}-3-(4-[1,2,4]triazol-1-yl-phenyl)-propionic acid]",839 nM
5,"Cc1c(F)cccc1C(CC(=O)O)NC(=O)c1cc(O)n(-c2ccc(Cl)cc2)n1 (centres unmarked) [Example 468, 3-{[1-(4-Chloro-phenyl)-5-hydroxy-1H-pyrazole-3-carbonyl]-amino}-3-(3-fluoro-2-methyl-phenyl)-propionic acid]",280 nM

# The next lines start with the values.
row,IC50,SMILES
1,323 nM,"COc1ccc(C(CC(=O)O)NC(=O)c2cc(O)n(-c3ccccc3F)n2)c(C(F)(F)F)c1 (centres unmarked) [Example 552, 3-{[1-(2-Fluoro-phenyl)-5-hydroxy-1H-pyrazole-3-carbonyl]-amino}-3-(4-methoxy-2-trifluoromethyl-phenyl)-propionic acid]"
2,459 nM,"Cc1ccc(C(CC(=O)O)NC(=O)c2cc(O)n(-c3ccccc3)n2)c(F)c1 (centres unmarked) [Example 564, 3-(2-Fluoro-4-methyl-phenyl)-3-[(5-hydroxy-1-phenyl-1H-pyrazole-3-carbonyl)-amino]-propionic acid]"

# Same assay, conditions: recombinant human cathepsin A; read-out: Activity (2): Cathepsin A inhibitory activity, IC50 class
row,IC50,SMILES
1,100 to 1000 nM,"O=C(O)CC(NC(=O)c1cc(O)n(-c2ccc(F)cc2)n1)c1cc(F)ccc1Cl (centres unmarked) [Example 524, 3-(2-Chloro-5-fluoro-phenyl)-3-{[1-(4-fluoro-phenyl)-5-hydroxy-1H-pyrazole-3-carbonyl]-amino}-propionic acid]"
2,100 to 1000 nM,Cc1c(F)cccc1C(CC(=O)O)NC(=O)c1cc(O)n(-c2cccc(F)c2)n1 (centres unmarked) [Example 482]
3,100 to 1000 nM,"Cc1c(F)cccc1C(CC(=O)O)NC(=O)c1cc(O)n(-c2ccc(Cl)cc2)n1 (centres unmarked) [Example 468, 3-{[1-(4-Chloro-phenyl)-5-hydroxy-1H-pyrazole-3-carbonyl]-amino}-3-(3-fluoro-2-methyl-phenyl)-propionic acid]"
